Assays:
[1] = biological target: Receptor-type tyrosine-protein kinase FLT3 (Homo sapiens, UniProt P36888, ITD); assay: Inhibition of recombinant human C-terminal FLT3 ITD mutant (571 to 993 residues) after 90 mins by mobility shift assay
MV4-11 = assay: Growth inhibition of human MV4-11 cells after 3 days by Alamar blue assay; format: functional; settings: MV4-11, 72 h
[2] = biological target: Tyrosine-protein kinase HCK (Homo sapiens, UniProt P08631)
Tyrosine-protein kinase HCK, sequence (P08631 whole entry): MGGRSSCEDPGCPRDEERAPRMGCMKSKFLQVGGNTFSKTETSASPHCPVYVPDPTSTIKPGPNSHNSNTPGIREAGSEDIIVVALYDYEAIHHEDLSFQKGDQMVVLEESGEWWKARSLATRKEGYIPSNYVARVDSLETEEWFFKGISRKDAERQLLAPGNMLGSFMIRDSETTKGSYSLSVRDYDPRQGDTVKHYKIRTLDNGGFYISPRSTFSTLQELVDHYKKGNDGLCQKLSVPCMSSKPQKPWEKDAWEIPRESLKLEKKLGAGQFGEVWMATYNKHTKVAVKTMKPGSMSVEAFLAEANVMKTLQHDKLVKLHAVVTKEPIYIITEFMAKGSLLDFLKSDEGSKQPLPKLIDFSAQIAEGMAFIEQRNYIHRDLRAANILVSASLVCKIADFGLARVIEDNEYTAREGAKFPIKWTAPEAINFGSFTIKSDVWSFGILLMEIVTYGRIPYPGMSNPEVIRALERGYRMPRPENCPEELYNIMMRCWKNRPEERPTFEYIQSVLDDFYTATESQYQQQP
Description: Inhibition of recombinant human HCK SH3-SH2-KD (75 to 526 residues) after 20 mins by mobility shift assay

Receptor-type tyrosine-protein kinase FLT3, sequence (P36888 whole entry, looked up, stated change not applied, the tested form may be a part): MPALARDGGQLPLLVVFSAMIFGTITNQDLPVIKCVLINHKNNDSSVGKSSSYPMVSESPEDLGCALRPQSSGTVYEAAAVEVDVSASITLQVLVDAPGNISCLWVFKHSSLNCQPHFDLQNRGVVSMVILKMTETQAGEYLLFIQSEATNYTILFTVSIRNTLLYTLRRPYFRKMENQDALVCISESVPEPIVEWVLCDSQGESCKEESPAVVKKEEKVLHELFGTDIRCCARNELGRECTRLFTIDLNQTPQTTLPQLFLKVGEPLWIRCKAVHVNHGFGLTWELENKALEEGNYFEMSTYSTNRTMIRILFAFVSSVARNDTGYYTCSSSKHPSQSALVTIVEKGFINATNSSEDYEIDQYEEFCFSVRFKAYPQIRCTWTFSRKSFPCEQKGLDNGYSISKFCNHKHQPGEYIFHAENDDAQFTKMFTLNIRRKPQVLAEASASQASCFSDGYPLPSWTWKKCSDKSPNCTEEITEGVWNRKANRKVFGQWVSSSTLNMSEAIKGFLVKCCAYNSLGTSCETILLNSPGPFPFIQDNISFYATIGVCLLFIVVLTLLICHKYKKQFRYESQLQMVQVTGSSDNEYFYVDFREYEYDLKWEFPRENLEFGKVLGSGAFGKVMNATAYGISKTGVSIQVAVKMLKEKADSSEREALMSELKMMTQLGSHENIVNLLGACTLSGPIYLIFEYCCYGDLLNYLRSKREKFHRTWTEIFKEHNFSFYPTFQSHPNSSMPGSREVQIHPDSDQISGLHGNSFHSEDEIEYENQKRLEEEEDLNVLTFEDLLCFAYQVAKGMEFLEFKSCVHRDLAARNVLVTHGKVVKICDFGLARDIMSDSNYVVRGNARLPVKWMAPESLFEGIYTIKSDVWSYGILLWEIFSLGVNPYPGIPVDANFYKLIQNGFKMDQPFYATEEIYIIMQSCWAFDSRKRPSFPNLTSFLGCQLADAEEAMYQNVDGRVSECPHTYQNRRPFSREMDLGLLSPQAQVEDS

| IC50 [1] | GI50 (MV4-11) | IC50 [2] | Structure (SMILES) |
| --- | --- | --- | --- |
| 27 nM | 29 nM | 5.4 nM | Nc1ncnc2c1c(-c1ccc(Oc3ccccc3)cc1)cn2[C@H]1CC[C@@H](N[C@H]2CCOC2=O)CC1 |
|  | 40 nM | 0.4 nM | CN1CCN([C@H]2CC[C@H](n3cc(-c4ccc(Oc5ccccc5)cc4)c4c(N)ncnc43)CC2)CC1 |
| 24 nM |  | 7.5 nM | Nc1ncnc2c1c(-c1ccc(Oc3ccccc3)cc1)cn2[C@H]1CC[C@H](N[C@@H](Cc2ccccc2)C(=O)O)CC1 |
| 17 nM |  | 6.3 nM | Nc1ncnc2c1c(-c1ccc(Oc3ccccc3)cc1)cn2[C@H]1CC[C@H](N[C@H](CO)C(=O)O)CC1 |
| 18 nM | > 100 nM | 1.8 nM | Nc1ncnc2c1c(-c1ccc(Oc3ccccc3)cc1)cn2[C@H]1CC[C@H](N[C@@H](CO)C(=O)O)CC1 |
| 35 nM |  | 137 nM | CC(C)C[C@@H](N[C@H]1CC[C@@H](n2cc(-c3ccc(Oc4ccccc4)cc3)c3c(N)ncnc32)CC1)C(=O)O |
| 11 nM |  | 15 nM | Nc1ncnc2c1c(-c1ccc(Oc3ccccc3)cc1)cn2[C@H]1CC[C@H](N[C@H](Cc2ccc(O)cc2)C(=O)O)CC1 |
| 16 nM |  | 65 nM | Nc1ncnc2c1c(-c1ccc(Oc3ccccc3)cc1)cn2[C@H]1CC[C@@H](N2CCC[C@@H]2C(=O)O)CC1 |
| 25 nM |  | 28 nM | Nc1ncnc2c1c(-c1ccc(Oc3ccccc3)cc1)cn2[C@H]1CC[C@H](N[C@H]2CCOC2=O)CC1 |
| 39 nM |  | 36 nM | C[C@@H](N[C@H]1CC[C@H](n2cc(-c3ccc(Oc4ccccc4)cc3)c3c(N)ncnc32)CC1)C(=O)O |
| 5 nM |  | 39 nM | Nc1ncnc2c1c(-c1ccc(Oc3ccccc3)cc1)cn2[C@H]1CC[C@@H](N[C@@H](Cc2ccc(O)cc2)C(=O)O)CC1 |
| 53 nM |  | 27 nM | CC(C)C[C@@H](N[C@H]1CC[C@H](n2cc(-c3ccc(Oc4ccccc4)cc3)c3c(N)ncnc32)CC1)C(=O)O |
| 27 nM |  | 24 nM | Nc1ncnc2c1c(-c1ccc(Oc3ccccc3)cc1)cn2[C@H]1CC[C@H](N[C@H](Cc2ccccc2)C(=O)O)CC1 |
| 26 nM |  | 52 nM | Nc1ncnc2c1c(-c1ccc(Oc3ccccc3)cc1)cn2[C@H]1CC[C@H](N2CCC[C@H]2C(=O)O)CC1 |
| 56 nM |  | 226 nM | CC(C)CCN[C@H]1CC[C@H](n2cc(-c3ccc(Oc4ccccc4)cc3)c3c(N)ncnc32)CC1 |
| 13 nM |  | 40 nM | Nc1ncnc2c1c(-c1ccc(Oc3ccccc3)cc1)cn2[C@H]1CC[C@@H](N[C@@H](CO)C(=O)O)CC1 |

| IC50 [1] | GI50 (MV4-11) | IC50 [2] | Structure (SMILES) |
| --- | --- | --- | --- |
| 32 nM |  | 12 nM | Nc1ncnc2c1c(-c1ccc(Oc3ccccc3)cc1)cn2[C@H]1CC[C@@H](NCC(=O)O)CC1 |
| 20 nM |  | 73 nM | C[C@H](N[C@H]1CC[C@@H](n2cc(-c3ccc(Oc4ccccc4)cc3)c3c(N)ncnc32)CC1)C(=O)O |
| 23 nM |  | 36 nM | C[C@@H](N[C@H]1CC[C@@H](n2cc(-c3ccc(Oc4ccccc4)cc3)c3c(N)ncnc32)CC1)C(=O)O |
| 14 nM | 21 nM | 4.4 nM | CC(C)C[C@H](N[C@H]1CC[C@H](n2cc(-c3ccc(Oc4ccccc4)cc3)c3c(N)ncnc32)CC1)C(=O)O |
| 5 nM | 18 nM | 13 nM | Nc1ncnc2c1c(-c1ccc(Oc3ccccc3)cc1)cn2[C@H]1CC[C@@H](N[C@H](Cc2ccc(O)cc2)C(=O)O)CC1 |
| 126 nM |  | 200 nM | Nc1ncnc2c1c(-c1ccc(Oc3ccccc3)cc1)cn2[C@H]1CC[C@H](N2CCC[C@@H]2C(=O)O)CC1 |
| 39 nM |  | 6.9 nM | C[C@H](N[C@H]1CC[C@H](n2cc(-c3ccc(Oc4ccccc4)cc3)c3c(N)ncnc32)CC1)C(=O)O |
| 28 nM |  | 7.4 nM | Nc1ncnc2c1c(-c1ccc(Oc3ccccc3)cc1)cn2[C@H]1CC[C@H](N[C@@H](Cc2ccc(O)cc2)C(=O)O)CC1 |
| 3.1 nM |  | 74 nM | Nc1ncnc2c1c(-c1ccc(Oc3ccccc3)cc1)cn2[C@H]1CC[C@@H](N[C@@H](Cc2ccccc2)C(=O)O)CC1 |
| 2.6 nM | 26 nM | 18 nM | Nc1ncnc2c1c(-c1ccc(Oc3ccccc3)cc1)cn2[C@H]1CC[C@@H](N[C@H](Cc2ccccc2)C(=O)O)CC1 |
| 20 nM |  | 79 nM | Nc1ncnc2c1c(-c1ccc(Oc3ccccc3)cc1)cn2[C@H]1CC[C@@H](N2CCC[C@H]2C(=O)O)CC1 |
| 12 nM |  | 23 nM | Nc1ncnc2c1c(-c1ccc(Oc3ccccc3)cc1)cn2[C@H]1CC[C@@H](N[C@H](CO)C(=O)O)CC1 |
| 28 nM | 98 nM | 3.7 nM | Nc1ncnc2c1c(-c1ccc(Oc3ccccc3)cc1)cn2[C@H]1CC[C@H](NCC(=O)O)CC1 |
| 44 nM |  | 119 nM | CC(C)CCN[C@H]1CC[C@@H](n2cc(-c3ccc(Oc4ccccc4)cc3)c3c(N)ncnc32)CC1 |
| 23 nM |  | 105 nM | CC(C)C[C@H](N[C@H]1CC[C@@H](n2cc(-c3ccc(Oc4ccccc4)cc3)c3c(N)ncnc32)CC1)C(=O)O |
| 33 nM |  | 15 nM | Nc1ncnc2c1c(-c1ccc(Oc3ccccc3)cc1)cn2[C@H]1CC[C@H](NCCC(=O)O)CC1 |

Reference: ChEMBL document CHEMBL4177609, “Identification of pyrrolo[2,3-d]pyrimidines as potent HCK and FLT3-ITD dual inhibitors” (Bioorg Med Chem Lett, 2017)
